Where two headings read alike, the source gives them in different places.
Molecular target: recombinant eIF4E (Homo sapiens (Human), UniProt P06730)
Experiment: Fluorescence polarization competition assay for eIF4E binding potency
Method in brief: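 Competitive displacement format: compounds compete with a fluorescent m7GDP tracer (20 nM) for 75 nM recombinant eIF4E. Incubation is 30 min at room temperature, protected from light, with 1% DMSO. Polarization read gives IC50 over eight 3-fold concentrations.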

[1] = fluorescence polarization competition, 75 nM recombinant eIF4E, 20 nM EDA-m7GDP-ATTO-550, IC50 class, read-out: elF4E FP
[2] = inhibition of eIF4E/EDA-m7GDP-ATTO-550 binding by 50%, Table 4B calculated values, read-out: IC50

recombinant eIF4E, sequence (P06730 whole entry): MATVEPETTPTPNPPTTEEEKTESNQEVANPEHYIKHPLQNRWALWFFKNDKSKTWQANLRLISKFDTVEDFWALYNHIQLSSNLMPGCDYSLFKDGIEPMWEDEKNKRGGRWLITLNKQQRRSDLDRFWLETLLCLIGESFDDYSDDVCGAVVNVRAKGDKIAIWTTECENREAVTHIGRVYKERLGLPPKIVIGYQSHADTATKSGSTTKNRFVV

Row | Structure (SMILES) | IC50 [1] | IC50 [2]
1 | Cc1ccc(-c2cc(Cl)ccc2OCCn2c(C)nc3cnc(-c4ccncc4)c(C#N)c3c2=O)c2scc(C(=O)O)c12 [compound 762] | < 50 nM | 33.7 nM
2 | Cc1cc(-c2ncc3nc(C)n(CCOc4ccc(Cl)cc4-c4ccc(C)c5c(C(=O)O)csc45)c(=O)c3c2C#N)ccn1 [compound 763] | < 50 nM | 5.19 nM
3 | Cc1nc2cnc(-c3ccncc3)c(C#N)c2c(=O)n1CC#Cc1ccc(Cl)cc1-c1ccnc2c(C(=O)O)csc12 [compound 770] | < 50 nM | 14 nM
4 | Cc1cc(-c2cc(Cl)ccc2OCCn2c(C)nc3cnc(C4CC4)c(C#N)c3c2=O)c2scc(C(=O)O)c2c1C [compound 771] | < 50 nM | 12.8 nM
5 | COc1sc2c(-c3cc(Cl)ccc3OCCn3c(C)nc4cnc(C5CC5)c(C#N)c4c3=O)ccnc2c1C(=O)O [compound 772] | < 50 nM | 14.1 nM
6 | Cc1nc2cnc(C3CC3)c(C#N)c2c(=O)n1CCOc1ccc(Cl)cc1-c1ccc(Cl)c2c(C(=O)O)csc12 [compound 773] | < 50 nM | 10.2 nM
7 | CCc1ccc(-c2c(C(F)(F)F)cc3nc(C)n(CCOc4ccc(Cl)cc4-c4cc(C)nc5c(C(=O)O)csc45)c(=O)c3c2C#N)cn1 [compound 774] | < 50 nM | 8.29 nM
8 | Cc1cncc(-c2c(C(F)(F)F)cc3nc(C)n(CCOc4ccc(Cl)cc4-c4cc(C)nc5c(C(=O)O)csc45)c(=O)c3c2C#N)c1 [compound 775] | < 50 nM | 48.3 nM
9 | CCc1cccc(-c2c(C(F)(F)F)cc3nc(C)n(CCOc4ccc(Cl)cc4-c4cc(C)nc5c(C(=O)O)csc45)c(=O)c3c2C#N)n1 [compound 776] | < 50 nM | 36.5 nM
10 | Cc1cc(-c2cc(Cl)ccc2OCCn2c(C)nc3cc(C(F)(F)F)c(-c4cc(F)ccn4)c(C#N)c3c2=O)c2scc(C(=O)O)c2n1 [compound 777] | 50 to 1000 nM | 53.3 nM
11 | Cc1cc(-c2c(F)cc3nc(C)n(CCOc4ccc(Cl)cc4-c4cc(C)nc5c(C(=O)O)csc45)c(=O)c3c2C#N)ccn1 [compound 778] | < 50 nM | 0.0702 nM
12 | Cc1cc(-c2cc(Cl)ccc2OCCn2c(C)nc3cnc(N(C)C)c(C#N)c3c2=O)c2scc(C(=O)O)c2n1 [compound 791] | < 50 nM | 3.59 nM
13 | Cc1cc(-c2cc(Cl)ccc2OCCn2c(C)nc3cnc(Cl)c(C#N)c3c2=O)c2scc(C(=O)O)c2n1 [compound 792] | < 50 nM | 2.44 nM
14 | CCc1cc(-c2cc(Cl)ccc2OCCn2c(C)nc3cnc(C4CC4)c(C#N)c3c2=O)c2scc(C(=O)O)c2n1 [compound 793] | < 50 nM | 4.81 nM
15 | Cc1ccc(-c2cc(Cl)ccc2OCCn2c(C)nc3cnc(C4CC4)c(C#N)c3c2=O)c2scc(C(=O)O)c12 [compound 794] | < 50 nM | 3.41 nM
16 | Cc1cc(-c2cc(Cl)ccc2OCCn2c(C)nc3cc(C(F)F)c(N4CC(F)(F)C4)c(C#N)c3c2=O)c2scc(C(=O)O)c2n1 [compound 799] | < 50 nM | 9.35 nM

The remaining lines, values ahead:

Row | IC50 [1] | IC50 [2] | Structure (SMILES)
17 | < 50 nM | 6.44 nM | Cc1cc(-c2cc(Cl)ccc2OCCn2c(C)nc3nc(C(F)(F)F)c(C)nc3c2=O)c2scc(C(=O)O)c2n1 [compound 760]
18 | < 50 nM | 9.19 nM | Cc1cc(-c2cc(Cl)ccc2OCCn2c(C)nc3cc(C(F)(F)F)c(-c4ncccn4)nc3c2=O)c2scc(C(=O)O)c2n1 [compound 765]
19 | < 50 nM | 7.51 nM | Cc1cc(-c2cc(Cl)ccc2OCCn2c(C)nc3cc(C(F)(F)F)c(-c4ccncn4)nc3c2=O)c2scc(C(=O)O)c2n1 [compound 767]
20 | < 50 nM | 22.4 nM | Cc1cc(-c2cc(Cl)ccc2OCCn2c(C)nc3cc(C(F)(F)F)c(-c4cncnc4)nc3c2=O)c2scc(C(=O)O)c2n1 [compound 768]
21 | < 50 nM | 23.9 nM | Cc1cc(-c2cc(Cl)ccc2OCCn2c(C)nc3cc(C(F)(F)F)c(-c4ccnc(C)n4)nc3c2=O)c2scc(C(=O)O)c2n1 [compound 769]
22 | < 50 nM | 9.54 nM | Cc1cc(-c2cc(Cl)ccc2OCCn2c(C)nc3cc(C(F)(F)F)c(-c4ccn(C)n4)c(C#N)c3c2=O)c2scc(C(=O)O)c2n1 [compound 779]
23 | < 50 nM | 9.6 nM | CC(=O)c1nc2c(=O)n(CCOc3ccc(Cl)cc3-c3cc(C)nc4c(C(=O)O)csc34)c(C)nc2cc1C(F)(F)F [compound 780]
24 | < 50 nM | 3.12 nM | Cc1cc(-c2cc(Cl)ccc2OCCn2c(C)nc3cc(C(F)(F)F)c(C(=O)N(C)C)nc3c2=O)c2scc(C(=O)O)c2n1 [compound 781]
25 | < 50 nM | 4.03 nM | Cc1cc(-c2cc(Cl)ccc2OCCn2c(C)nc3cc(C(F)(F)F)c(S(C)(=O)=O)nc3c2=O)c2scc(C(=O)O)c2n1 [compound 782]
26 | < 50 nM | 14.8 nM | C#Cc1nc2c(=O)n(CCOc3ccc(Cl)cc3-c3cc(C)nc4c(C(=O)O)csc34)c(C)nc2cc1C(F)(F)F [compound 783]
27 | < 50 nM | 13.7 nM | CC#Cc1nc2c(=O)n(CCOc3ccc(Cl)cc3-c3cc(C)nc4c(C(=O)O)csc34)c(C)nc2cc1C(F)(F)F [compound 784]
28 | < 50 nM | 18.2 nM | Cc1cc(-c2cc(Cl)ccc2OCCn2c(C)nc3cc(C(F)(F)F)c(C#N)nc3c2=O)c2scc(C(=O)O)c2n1 [compound 785]
29 | < 50 nM | 10.9 nM | Cc1cc(-c2cc(Cl)ccc2OCCn2c(C)nc3cc(C(F)(F)F)c(-c4ccn(C)n4)nc3c2=O)c2scc(C(=O)O)c2n1 [compound 787]
30 | < 50 nM | 8.96 nM | Cc1cc(-c2cc(Cl)ccc2OCCn2c(C)nc3cc(C(F)(F)F)c(C(=O)N(C)C)c(C#N)c3c2=O)c2scc(C(=O)O)c2n1 [compound 789]
31 | < 50 nM | 17.8 nM | C#Cc1c(C(F)(F)F)cc2nc(C)n(CCOc3ccc(Cl)cc3-c3cc(C)nc4c(C(=O)O)csc34)c(=O)c2c1C#N [compound 790]
32 | < 50 nM | 12.1 nM | Cc1cc(-c2cc(Cl)ccc2OCCn2c(C)nc3cc(C(F)(F)F)c(C4CC4)nc3c2=O)c2scc(C(=O)O)c2n1 [compound 795]
33 | < 50 nM | 3.27 nM | Cc1cc(-c2cc(Cl)ccc2OCCn2c(C)nc3cc(C(F)(F)F)c(N4CC(=O)C4)nc3c2=O)c2scc(C(=O)O)c2n1 [compound 796]
34 | < 50 nM | 6.79 nM | Cc1cc(-c2cc(Cl)ccc2OCCn2c(C)nc3cc(C(F)(F)F)c(N4CC(O)C4)nc3c2=O)c2scc(C(=O)O)c2n1 [compound 797]
35 | < 50 nM | 32.4 nM | Cc1cc(-c2cc(Cl)ccc2OCCn2c(C)nc3cc(C(F)(F)F)c(N4CCC(C)CC4)nc3c2=O)c2scc(C(=O)O)c2n1 [compound 800]
36 | < 50 nM | 17 nM | Cc1cc(-c2cc(Cl)ccc2OCCn2c(C)nc3cc(C(F)(F)F)c(N4CCC(C)(C)CC4)nc3c2=O)c2scc(C(=O)O)c2n1 [compound 801]
37 | < 50 nM | 35.9 nM | Cc1cc(-c2cc(Cl)ccc2OCCn2c(C)nc3cc(C(F)(F)F)c(N4CCC(F)(F)CC4)nc3c2=O)c2scc(C(=O)O)c2n1 [compound 802]
38 | 50 to 1000 nM | 161 nM | Cc1cc(-c2cc(Cl)ccc2OCCn2c(C)nc3cc(C(F)(F)F)c(N4CCC(C(F)(F)F)CC4)nc3c2=O)c2scc(C(=O)O)c2n1 [compound 803]

Source: patent publication US11286268B1, “EIF4E-inhibiting compounds and methods” (EFFECTOR THERAPEUTICS, INC., priority 2019, dated 2022)
